Source: ChEMBL document CHEMBL1201862, “PubChem BioAssay data set” (2004)
Structures can show the parent of a compound that is named as a salt.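 Protocol summary: plate cells (96-well), add compound at 5 concentrations, incubate 48 h, interpolate endpoints linearly. GI50: concentration for 50% inhibition of growth.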 Activity calls are given as the source filed them. Rule as the data show it: active = GI50 up to about 1.1 µM and inactive = higher.

How the values were obtained:
Test in all cases: NCI anticancer screen, dose series, 48 h
A498 = system: A498
A549 = system: A549
CAKI-1 = system: CAKI-1
EKVX = system: EKVX
HL-60 = system: HL-60
K562 = system: K562
M14 = system: M14
MOLT-4 = system: MOLT-4
Malme-3M = system: Malme-3M
NCI-H522 = system: NCI-H522
PC-3 = system: PC-3
RPMI-8226 = system: RPMI-8226
SF-268 = system: SF-268
SF-539 = system: SF-539
SK-MEL-2 = system: SK-MEL-2
SNB-75 = system: SNB-75
SW-620 = system: SW-620
TK-10 = system: TK-10
COLO 205 = system: COLO 205
BT-549 = system: BT-549

Compound | GI50 (A498) | GI50 (A549) | GI50 (CAKI-1) | GI50 (EKVX) | GI50 (HL-60) | GI50 (K562) | GI50 (M14) | GI50 (MOLT-4) | GI50 (Malme-3M) | GI50 (NCI-H522) | GI50 (PC-3) | GI50 (RPMI-8226) | GI50 (SF-268) | GI50 (SF-539) | GI50 (SK-MEL-2) | GI50 (SNB-75) | GI50 (SW-620) | GI50 (TK-10) | GI50 (COLO 205) | GI50 (BT-549)
O=C1c2cc3c(cc2CC12Cc1cc4c(cc1C2=O)CCC4)CCCC3 (stereo not given) | > 100 µM (inactive) | > 100 µM (inactive) | > 100 µM (inactive) | 95.1 µM (inactive) | > 100 µM (inactive) | > 100 µM (inactive) | > 100 µM (inactive) | > 100 µM (inactive) | 59.4 µM (inactive) | > 100 µM (inactive) | > 100 µM (inactive) | > 100 µM (inactive) | > 100 µM (inactive) | > 100 µM (inactive) | > 100 µM (inactive) | > 100 µM (inactive) | > 100 µM (inactive) | > 100 µM (inactive) | – | –
CC1C[C@]2(C)C(NCCN)=Nc3ccccc3[C@@H]2N(C)c2ccccc21 (stereo not given in full) | 16.5 µM (inactive) | 16.4 µM (inactive) | 15.5 µM (inactive) | 16.8 µM (inactive) | 16.2 µM (inactive) | 11.9 µM (inactive) | 1.9 µM (inactive) | 27.8 µM (inactive) | 3.72 µM (inactive) | – | 12.9 µM (inactive) | 14.1 µM (inactive) | 13.9 µM (inactive) | 12.4 µM (inactive) | 17.2 µM (inactive) | 3.45 µM (inactive) | 17.5 µM (inactive) | 9.29 µM (inactive) | 2.23 µM (inactive) | –
CCn1c2nc(=O)n(CCCCCCCCSC(c3ccccc3)(c3ccccc3)c3ccccc3)c(=O)c-2nc2ccccc21 | 37.8 µM (inactive) | – | 5.22 µM (inactive) | 7.83 µM (inactive) | 0.181 µM (active) | 5.55 µM (inactive) | 8.61 µM (inactive) | 2.9 µM (inactive) | – | 3.13 µM (inactive) | 4.9 µM (inactive) | 4.22 µM (inactive) | 4.08 µM (inactive) | 64.3 µM (inactive) | 8.41 µM (inactive) | – | 3.41 µM (inactive) | 43.9 µM (inactive) | – | –
CN(C)/C(=N/C(=O)Nc1ccccc1)SCc1ccccc1 | > 100 µM (inactive) | > 100 µM (inactive) | > 100 µM (inactive) | > 100 µM (inactive) | > 100 µM (inactive) | 76.9 µM (inactive) | > 100 µM (inactive) | 73.3 µM (inactive) | > 100 µM (inactive) | 91.2 µM (inactive) | – | > 100 µM (inactive) | > 100 µM (inactive) | > 100 µM (inactive) | 85.1 µM (inactive) | > 100 µM (inactive) | > 100 µM (inactive) | > 100 µM (inactive) | > 100 µM (inactive) | –
CCCCCCCCCCCCCC1CCC(CC)N1 (stereo not given) | 21.4 µM (inactive) | 20.8 µM (inactive) | 15.8 µM (inactive) | 16.9 µM (inactive) | 5.14 µM (inactive) | 14.8 µM (inactive) | 17.9 µM (inactive) | 11.9 µM (inactive) | 18.4 µM (inactive) | 18.2 µM (inactive) | – | 14 µM (inactive) | 8.81 µM (inactive) | 17.6 µM (inactive) | 21.8 µM (inactive) | 7.28 µM (inactive) | 15.9 µM (inactive) | 17.7 µM (inactive) | 15.1 µM (inactive) | –
O=[N+]([O-])/C(C(Cl)=C(Cl)Cl)=C(\SCc1ccccc1)N1CCCCC1 | 31.9 µM (inactive) | 30.9 µM (inactive) | > 100 µM (inactive) | 70.3 µM (inactive) | 9.73 µM (inactive) | 27.8 µM (inactive) | 19.3 µM (inactive) | 10.7 µM (inactive) | 12.2 µM (inactive) | 14.7 µM (inactive) | 20 µM (inactive) | 11.5 µM (inactive) | 23.7 µM (inactive) | 21.5 µM (inactive) | 21.5 µM (inactive) | – | – | 38.4 µM (inactive) | 16.4 µM (inactive) | –
Cc1ccc(/N=c2/oc3c(ccc4ccccc43)nc2Nc2ccc(C)cc2)cc1 | > 100 µM (inactive) | > 100 µM (inactive) | > 100 µM (inactive) | > 100 µM (inactive) | > 100 µM (inactive) | > 100 µM (inactive) | – | > 100 µM (inactive) | > 100 µM (inactive) | > 100 µM (inactive) | > 100 µM (inactive) | > 100 µM (inactive) | > 100 µM (inactive) | > 100 µM (inactive) | > 100 µM (inactive) | > 100 µM (inactive) | > 100 µM (inactive) | > 100 µM (inactive) | > 100 µM (inactive) | –
NCCCNOCCCN | > 100 µM (inactive) | > 100 µM (inactive) | > 100 µM (inactive) | – | – | > 100 µM (inactive) | > 100 µM (inactive) | > 100 µM (inactive) | > 100 µM (inactive) | > 100 µM (inactive) | > 100 µM (inactive) | > 100 µM (inactive) | > 100 µM (inactive) | > 100 µM (inactive) | > 100 µM (inactive) | – | > 100 µM (inactive) | > 100 µM (inactive) | > 100 µM (inactive) | –
O=C1N[C@H](C(=O)O)[C@@H](c2ccc(OCc3ccccc3)cc2)O1 | – | 81.5 µM (inactive) | 34.3 µM (inactive) | 22.4 µM (inactive) | – | > 100 µM (inactive) | > 100 µM (inactive) | > 100 µM (inactive) | > 100 µM (inactive) | 37.3 µM (inactive) | > 100 µM (inactive) | 11.6 µM (inactive) | 25.4 µM (inactive) | – | 26.2 µM (inactive) | 10.8 µM (inactive) | > 100 µM (inactive) | 27.4 µM (inactive) | > 100 µM (inactive) | 32.1 µM (inactive)
CCOC(=O)c1c(SC(=O)c2ccc(C(C)(C)C)cc2)n(-c2ccccc2)c(=S)n(-c2ccccc2)c1=O | > 100 µM (inactive) | > 100 µM (inactive) | > 100 µM (inactive) | > 100 µM (inactive) | > 100 µM (inactive) | > 100 µM (inactive) | > 100 µM (inactive) | 59.4 µM (inactive) | > 100 µM (inactive) | > 100 µM (inactive) | > 100 µM (inactive) | – | > 100 µM (inactive) | > 100 µM (inactive) | – | > 100 µM (inactive) | > 100 µM (inactive) | > 100 µM (inactive) | > 100 µM (inactive) | –
O=c1oc2ccc(Cl)cc2cc1-c1cn2ccccc2n1 | – | 14.7 µM (inactive) | 15.2 µM (inactive) | 28.8 µM (inactive) | – | > 100 µM (inactive) | > 66.7 µM (inactive) | > 100 µM (inactive) | 3.46 µM (inactive) | 36.6 µM (inactive) | > 72.9 µM (inactive) | 80.9 µM (inactive) | > 39.8 µM (inactive) | 8.09 µM (inactive) | > 96.6 µM (inactive) | 15.3 µM (inactive) | 85.5 µM (inactive) | 14.8 µM (inactive) | > 100 µM (inactive) | 34.5 µM (inactive)
O=C/C1=C/C2=Cc3ccccc3C=C(/C=C(/C=O)C1)C2 | > 100 µM (inactive) | > 100 µM (inactive) | 41.1 µM (inactive) | > 100 µM (inactive) | 41.5 µM (inactive) | 18.1 µM (inactive) | 43.4 µM (inactive) | 15.8 µM (inactive) | 90.4 µM (inactive) | > 100 µM (inactive) | – | 32 µM (inactive) | 38.1 µM (inactive) | 46.6 µM (inactive) | > 100 µM (inactive) | 27.2 µM (inactive) | 44.7 µM (inactive) | > 100 µM (inactive) | > 100 µM (inactive) | –
[O-][N+]1=NC(c2ccccc2)=C1c1ccccc1 | > 50 µM (inactive) | > 50 µM (inactive) | > 50 µM (inactive) | > 50 µM (inactive) | 11.4 µM (inactive) | > 50 µM (inactive) | > 50 µM (inactive) | > 50 µM (inactive) | > 50 µM (inactive) | > 50 µM (inactive) | > 50 µM (inactive) | > 50 µM (inactive) | > 50 µM (inactive) | > 50 µM (inactive) | > 50 µM (inactive) | 10.8 µM (inactive) | > 50 µM (inactive) | > 50 µM (inactive) | > 50 µM (inactive) | –
CC(C)(C)OC(=O)c1cnc(Cl)cn1 | – | 69.7 µM (inactive) | 3.56 µM (inactive) | 24.2 µM (inactive) | – | 28.4 µM (inactive) | 29.4 µM (inactive) | 27.3 µM (inactive) | 51.6 µM (inactive) | 1.05 µM (active) | 64.7 µM (inactive) | 23.7 µM (inactive) | 55.5 µM (inactive) | > 100 µM (inactive) | 29.9 µM (inactive) | > 100 µM (inactive) | 55.8 µM (inactive) | > 100 µM (inactive) | 71.3 µM (inactive) | 48.5 µM (inactive)
CN/C(=N\CCSCc1nc[nH]c1C)NC#N [CIMETIDINE] | 91.6 µM (inactive) | > 100 µM (inactive) | > 100 µM (inactive) | > 10 µM (inactive) | > 100 µM (inactive) | > 100 µM (inactive) | > 100 µM (inactive) | > 100 µM (inactive) | > 100 µM (inactive) | > 100 µM (inactive) | > 100 µM (inactive) | – | > 100 µM (inactive) | > 100 µM (inactive) | > 100 µM (inactive) | 33.3 µM (inactive) | > 100 µM (inactive) | – | > 100 µM (inactive) | –
CNC(C)Cc1ccccc1OC (stereo not given) [METHOXYPHENAMINE HYDROCHLORIDE] | > 100 µM (inactive) | > 100 µM (inactive) | > 100 µM (inactive) | > 100 µM (inactive) | > 100 µM (inactive) | > 100 µM (inactive) | > 100 µM (inactive) | > 100 µM (inactive) | > 100 µM (inactive) | > 100 µM (inactive) | – | > 100 µM (inactive) | > 100 µM (inactive) | > 100 µM (inactive) | > 100 µM (inactive) | > 100 µM (inactive) | > 100 µM (inactive) | > 100 µM (inactive) | > 100 µM (inactive) | –
